The text below walks through data of patent US20240182456A1, “2-((4-((S)-2-(4-CHLORO-2-FLUOROPHENYL)-2-METHYLBENZO[D][1,3]DIOXOL-4-YL)PIPERIDIN-1-YL)METHYL)-1-(((S)-OXETAN-2-YL)METHYL)-1H-IMIDAZOLE DERIVATIVES AS ACTIVATORS OF THE GLP1 RECEPTOR FOR THE TREATMENT OF OBESITY” (Novartis AG, priority 2021, published 2024).

In the test the target is human GLP1R (hGLP1R) (Homo sapiens, UniProt P43220). Briefly: Human GLP1R cAMP agonist assay (GloSensor). Format: cell-based. As to conditions: HEK293-SNAP-hGLP1R-GloSensor cells; for Emax: cAMP, normalized to GLP1(7-36) maximum response, read-out: Emax mean; for EC50: intracellular cAMP, mean n=3 where SEM is given. The method in brief: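 HEK293 cells stably expressing SNAP-tagged hGLP1R and the GloSensor-22F cAMP luciferase biosensor, pre-loaded 2 h with substrate, then exposed 12 min at rt to compound (30–0.06 μM, 0.5 mM IBMX, 0.1% BSA). Luminescence normalized to 2 nM GLP1(7-36); EC50 and Emax from 4-parameter logistic fit.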
Chain of human GLP1R (hGLP1R) (P43220 24-463): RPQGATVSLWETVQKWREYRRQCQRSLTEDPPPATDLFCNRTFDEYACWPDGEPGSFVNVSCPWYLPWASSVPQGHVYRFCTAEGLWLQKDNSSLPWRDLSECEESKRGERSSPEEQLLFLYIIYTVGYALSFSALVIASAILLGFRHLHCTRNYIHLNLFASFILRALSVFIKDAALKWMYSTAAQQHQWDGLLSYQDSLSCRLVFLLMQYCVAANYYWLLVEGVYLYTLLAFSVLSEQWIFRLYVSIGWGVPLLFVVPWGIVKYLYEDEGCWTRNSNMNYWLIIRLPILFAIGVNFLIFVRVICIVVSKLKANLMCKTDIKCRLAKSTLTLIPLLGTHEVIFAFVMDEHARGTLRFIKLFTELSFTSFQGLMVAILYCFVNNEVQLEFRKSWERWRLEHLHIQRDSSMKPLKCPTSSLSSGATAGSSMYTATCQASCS

With `C[C@]1(c2ccc(Cl)cc2F)Oc2cccc(C3CCN(Cc4nc(/C=C/C(=O)O)cn4C[C@@H]4CCO4)CC3)c2O1` [Compound C-2, (E)-3-(2-((4-((S)-2-(4-chloro-2-fluorophenyl)-2-methylbenzo[d][1,3]dioxol-4-yl)piperidin-1-yl)methyl)-1-(((S)-oxetan-2-yl)methyl)-1H-imidazol-4-yl)acrylic acid], the Emax – broadly, the size of the effect at its maximum, as opposed to the concentration needed – is 109% and it took 2.23 nM to reach a half-maximal effect (EC50).

For the compound `Cc1nc(CN2CCC(c3cccc4c3O[C@@](C)(c3ccc(Cl)cc3F)O4)CC2)n(C[C@@H]2CCO2)c1/C=C/C(=O)O` [Compound C-5, (E)-3-(2-((4-((S)-2-(4-chloro-2-fluorophenyl)-2-methylbenzo[d][1,3]dioxol-4-yl)piperidin-1-yl)methyl)-4-methyl-1-(((S)-oxetan-2-yl)methyl)-1H-imidazol-5-yl)acrylic acid], the Emax worked out at 110% and a half-maximal effect (EC50) was put at 0.0129 nM.

On to `C[C@]1(c2ccc(Cl)cc2F)Oc2cccc(C3CCN(Cc4nc(C(F)(F)F)c(C(=O)O)n4C[C@@H]4CCO4)CC3)c2O1` [Compound C-7, 2-((4-((S)-2-(4-chloro-2-fluorophenyl)-2-methylbenzo[d][1,3]dioxol-4-yl)piperidin-1-yl)methyl)-1-(((S)-oxetan-2-yl)methyl)-4-(trifluoromethyl)-1H-imidazole-5-carboxylic acid], for which the Emax was 109% and a half-maximal response (EC50) required 0.847 nM.

`C[C@]1(c2ccc(Cl)cc2F)Oc2cccc(C3CCN(Cc4ncc(/C=C/C(=O)O)n4C[C@@H]4CCO4)CC3)c2O1` [Compound C-1, (E)-3-(2-((4-((S)-2-(4-chloro-2-fluorophenyl)-2-methylbenzo[d][1,3]dioxol-4-yl)piperidin-1-yl)methyl)-1-(((S)-oxetan-2-yl)methyl)-1H-imidazol-5-yl)acrylic acid]: the Emax was 111% and the response was half-maximal at 0.0197 nM (EC50).
